Source: US6590071B1, “Reversible aqueous pH sensitive lipidizing reagents, compositions and methods of use” (University of Southern California, priority 1998, dated 2003)
No end group written: not given here.

Experiments:
[1] = tested on: vasopressin deficient Brattleboro rats; test: In vivo effect on urine output in vasopressin deficient Brattleboro rats; set-up: species or system rat; conditions: 5 μg/kg subcutaneous; for time after injection at which urine excretion was back to original: Brattleboro rats (FIG. 3); for delay in urine excretion: first 8 h (FIG. 2)
Description: REAL-AVP was injected subcutaneously in animals (5 μg/kg) and urine was collected at different time points. […] AVP and Pal-AVP have similar effects with a delay in urine excretion of 4 h. A longer delay in urine excretion, up to 6 h, was observed after injection of REAL-AVP. […] The amount of urine excretion was back to original 24 h after injection of Pal-AVP and AVP. However, the effect of REAL-AVP lasted for 3 days (FIG. 3).

[2] = tested on: hyperglycemic (diabetic) Sprague Dawley rats; test: Blood glucose level in streptozotocin-induced diabetic rats after subcutaneous injection; type: in vivo, rat
Description: Diabetes was induced in Sprague Dawley rats using i.v. injection of 60 mg/kg, streptozotocin. Solutions of 0.5 Unit/ml insulin or REAL-insulin in borate buffer (pH 10, 0.1M) were prepared. Rats were fasted 16 h prior to the experiment and were injected subcutaneously 0.5 Unit/kg of insulin or REAL-insulin. The blood glucose level of rats was monitored at different time points for 9 h. After this time rats were fed and the blood glucose level was measured after 15 h of feeding. The rats were again fasted and blood glucose level was measured after 16 h. The period of fasting and feeding was continued for 3 days.

fasted diabetic rats = test: Blood glucose level in fasted diabetic rats after oral administration; type: in vivo, rat; conditions: 10 U/kg oral, water/oil microemulsion, in 9 hours (FIG. 6)
Description: The blood glucose level of rats was increased one week after inducing diabetes from an average of 100 mg/dl to 420 mg/dl (non-fasted rats). […] This is possibly due to the time required for REAL-insulin to be hydrolyzed and to release free insulin. After injection of insulin the fast blood glucose level of rats was back to original within 24 h. However, in the case of the rats treated with REAL-insulin, the drug effect on the fast blood glucose level lasted for 3 days (FIG. 5). Fasted diabetic rats were also administered by oral means 10 U/kg of insulin, REAL-insulin and placebo. Rats were fasted 16 h prior to oral administration. A water/oil microemulsion was used as the drug carrier.

| Molecule | time after injection at which urine excretion was back to original [1] [h] | delay in urine excretion ([1]; Brattleboro rats) [h] | time for fast blood glucose level to be back to original ([2]; 0.5 U/kg subcutaneous, diabetic rats (FIG. 5)) [h] | change in blood glucose level within the first hour ([2]; subcutaneous, fasted diabetic rats (FIG. 4)) | reduction of the blood glucose level (fasted diabetic rats) | effectiveness compared with REAL-AVP ([1]; Brattleboro rats) |
| --- | --- | --- | --- | --- | --- | --- |
| NC(=O)CC[C@@H]1NC(=O)[C@H](Cc2ccccc2)NC(=O)[C@H](Cc2ccc(O)cc2)NC(=O)[C@@H](N)CSSC[C@@H](C(=O)N2CCC[C@H]2C(=O)N[C@@H](CCCN=C(N)N)C(=O)NCC(N)=O)NC(=O)[C@H](CC(N)=O)NC1=O [AVP, Arginine vasopressin] | 24 | 4 | – | – | – | – |
| insulin | – | – | ≤ 24 | significant drop | no significant reduction | – |
| Pal-AVP: Direct lipidization of AVP to palmitic acid (CYFQNCPRG; ends and bridges not checked; also: palmitoylated, position not given here; UniProt P01185 20-28, looked up) | 24 | 4 | – | – | – | not as effective as REAL-AVP |
